According to patent US8084586B2, “Doxorubicin immunoassay” (Saladax Biomedical, Inc., priority 2005, dated 2011):

Assays:
[1] = tested on: monoclonal antibody to doxorubicin [4]-KLH (Immunogen Example 3b, Example 7); assay: Indirect competitive microtiter plate ELISA, cross-reactivity, monoclonal antibody from doxorubicin [4]-KLH immunogen (Example 3b); type: binding, mouse (BALB/c); conditions: relative to doxorubicin
Method: (§1) Two groups of ten Female BALB/c mice were immunized i.p. one with 100 μg/mouse of doxorubicin [4]-BTG immunogen prepared in Example 3a and the other with 100 μg/mouse of doxorubicin [4]-KLH immunogen prepared in Example 3b emulsified in Complete Freund's adjuvant. The mice were boosted once four weeks after the initial injection with 100 μg/mouse of the same immunogens emulsified in Incomplete Freund's Adjuvant. Ten days after the boost test bleeds from each mouse were obtained by orbital bleed. For monoclonal antibodies depending on the immunogen, age and rest period of the mouse starting four days before the fusion, the mice were injected i.p. with either 400 μg (3 days before fusion), 200 μg (2 days before fusion), and […] (1 day before fusion) of doxorubicin [4]-BTG immunogen prepared in Example 3a in PBS or 100 ug on each day of doxorubicin [4]-KLH immunogen prepared in Example 3b in PBS on three successive days. According to the protocol of Coligan et al. spleen cells were isolated from the selected mice and fused with 2×10^7 cells of the myeloma fusion partner cell line (SP2/0) using 50% polyethylene glycol 1500 [Coligan, J. E. et al., eds., Current Protocols in Immunology, 2.5.1-2.5.8, (1992), Wiley & Sons, NY.] To grow the fused cells into antibody producing colonies according to the method of Coligan et al. the fused cells were plated on 10 96-well plates in a conventional HAT (hypoxanthine, aminopterin and thymidine) selective growth medium such as DMEM/F12 (Dulbecco's Modified Eagle's Medium 1:1 with L-glutamine and HEPES) supplemented with 20% fetal bovine serum alternative, and containing 2% L-glutamine (100 mM) and 2% 50× HAT. Two weeks later, the hybridoma supernatant was assayed for the presence of anti-doxorubicin antibodies by ELISA as described in Example 10b. Positive wells were expanded and again screened by the same method. The positive clones were confirmed for doxorubicin binding by a competitive ELISA as described in Example 11 or subcloned directly. Clones positive by ELISA were subcloned once or twice by limiting dilution according to the method disclosed in Coligan, J. E. et al., eds., Current Protocols in Immunology, 2.5.8-2.5.17, (1992), Wiley & Sons, NY.
(§2) For the purpose of screening antibodies and measuring doxorubicin concentration by the Enzyme-Linked Immunosorbent Assay (ELISA) method polystyrene microtiter plates (Nunc MaxiSorp F8 Immunomodules) optimized for protein binding and containing 96 wells per plate were used. Each well was coated with doxorubicin [5]-BSA 3:1 conjugate (prepared as in Example 6b) by adding 300 μL of doxorubicin [1]-BSA conjugate at 10 μg/mL in 0.01 M MES, pH=6, and incubating for three hours at room temperature. The wells were washed with 0.005 M MES, pH 6 and then were blocked with 375 μL of 5% sucrose, 0.2% sodium caseinate solution for 30 minutes at room temperature. After removal of the post-coat solution the plates were dried at 37° C. overnight.
as §2, with “[1]-BSA 1:1” for “[5]-BSA 3:1”, “6c)” for “6b)”, “[5]-BSA” for “[1]-BSA”
For the purpose of screening antibodies and measuring doxorubicin concentration by the Enzyme-Linked Immunosorbent Assay (ELISA) method polystyrene microtiter plates (Nunc MaxiSorp F8 Immunomodules) optimized for protein binding and containing 96 wells per plate were used. […]

[2] = tested on: antibodies to doxorubicin [5]-BTG (Immunogen Example 4a, Example 8); assay: Indirect competitive microtiter plate ELISA, cross-reactivity, antiserum from doxorubicin [5]-BTG immunogen (Example 4a); type: binding, mouse (BALB/c); conditions: relative to doxorubicin
Method: Mice were boosted once four weeks after the initial injection with 100 μg/mouse of the same immunogens emulsified in Incomplete Freund's Adjuvant. Ten and 28 days after the boost test bleeds from each mouse were obtained by orbital bleed. The anti-serum from the day 28 test bleeds contained doxorubicin antibodies evaluated in Examples 10a and 11. […] For the purpose of screening antibodies and measuring doxorubicin concentration by the Enzyme-Linked Immunosorbent Assay (ELISA) method polystyrene microtiter plates (Nunc MaxiSorp F8 Immunomodules) optimized for protein binding and containing 96 wells per plate were used. […] The wells were washed with 0.005 M MES, pH 6 and then were blocked with 375 μL of 5% sucrose, 0.2% sodium caseinate solution for 30 minutes at room temperature. After removal of the post-coat solution the plates were dried at 37° C. overnight. […] The wells were washed with 0.005 M MES, pH 6 and then were blocked with 375 μL of 5% sucrose, 0.2% sodium caseinate solution for 30 minutes at room temperature. After removal of the post-coat solution the plates were dried at 37° C. overnight. For the purpose of screening antibodies and measuring doxorubicin concentration by the Enzyme-Linked Immunosorbent Assay (ELISA) method polystyrene microtiter plates (Nunc MaxiSorp F8 Immunomodules) optimized for protein binding and containing 96 wells per plate were used. […] The wells were washed with 0.005 M MES, pH 6 and then were blocked with 375 μL of 5% sucrose, 0.2% sodium caseinate solution for 30 minutes at room temperature. After removal of the post-coat solution the plates were dried at 37° C. overnight. Antibodies were screened by Enzyme-Linked Immunosorbent Assay (ELISA) method. […] During this incubation antibody binds to the doxorubicin [5]-conjugate in the well. […] After an incubation of 10 minutes at room temperature with shaking, during which the goat anti-mouse antibody—HRP enzyme conjugate binds to doxorubicin antibodies in the wells, the plates were again washed three times to remove unbound goat anti-mouse antibody—HRP enzyme conjugate. To develop a measurable color in the wells washing was followed by the addition of 100 μL of TMB (TMB Liquid Substrate), a substrate for HRP, to develop color during a 10 minute incubation with shaking at room temperature. Following the incubation for color development, 50 μL of stop solution (1.5% sodium fluoride in di H2O) was added to each well to stop the color development and after 10 seconds of shaking the absorbance was determined at 650 nm with a 96-well plate reader. The amount of antibody in a well was proportional to the absorbance measured and was expressed as the dilution (titer) resulting in an absorbance of 1.5. Titers were determined by graphing log antibody dilution of the antibody measured (x-axis) vs. absorbance 650 nm (y-axis) and extrapolating the titer at an absorbance of 1.5. The titer determined the concentration (dilution) of antibody used in the indirect competitive Microtiter plate assay described in Example 11. Doxorubicin concentrations were measured by an indirect competitive Enzyme-Linked Immunosorbent Assay (ELISA) method This method for measuring doxorubicin concentrations was performed with the microtiter plates that were sensitized with doxorubicin [1]-BSA described in Examples 9b, c, d. […] During the 10 minute incubation (R.T., with shaking) there is a competition of antibody binding for the doxorubicin conjugate in the well and the analyte in solution. […]

[3] = tested on: monoclonal antibody to doxorubicin [4]-BTG (Immunogen Example 3a, Example 7); assay: Indirect competitive microtiter plate ELISA, cross-reactivity, monoclonal antibody from doxorubicin [4]-BTG immunogen (Example 3a); type: binding, mouse (BALB/c); conditions: relative to doxorubicin
Method: as §1
as §2, with “The wells were washed with 0.005 M MES, pH 6 and then were blocked with 375 μL of 5% sucrose, 0.2% sodium caseinate solution for 30 minutes at room temperature. After removal of the post-coat solution the plates were dried at 37° C. overnight.” left out

[4] = tested on: antibodies to doxorubicin [5]-KLH (Immunogen Example 4b, Example 8); assay: Indirect competitive microtiter plate ELISA, cross-reactivity, antiserum from doxorubicin [5]-KLH immunogen (Example 4b); type: binding, mouse (BALB/c); conditions: relative to doxorubicin
Method: Mice were boosted once four weeks after the initial injection with 100 μg/mouse of the same immunogens emulsified in Incomplete Freund's Adjuvant. Ten and 28 days after the boost test bleeds from each mouse were obtained by orbital bleed. The anti-serum from the day 28 test bleeds contained doxorubicin antibodies evaluated in Examples 10a and 11. […] For the purpose of screening antibodies and measuring doxorubicin concentration by the Enzyme-Linked Immunosorbent Assay (ELISA) method polystyrene microtiter plates (Nunc MaxiSorp F8 Immunomodules) optimized for protein binding and containing 96 wells per plate were used. […] The wells were washed with 0.005 M MES, pH 6 and then were blocked with 375 μL of 5% sucrose, 0.2% sodium caseinate solution for 30 minutes at room temperature. After removal of the post-coat solution the plates were dried at 37° C. overnight. For the purpose of screening antibodies and measuring doxorubicin concentration by the Enzyme-Linked Immunosorbent Assay (ELISA) method polystyrene microtiter plates (Nunc MaxiSorp F8 Immunomodules) optimized for protein binding and containing 96 wells per plate were used. […] The wells were washed with 0.005 M MES, pH 6 and then were blocked with 375 μL of 5% sucrose, 0.2% sodium caseinate solution for 30 minutes at room temperature. After removal of the post-coat solution the plates were dried at 37° C. overnight. For the purpose of screening antibodies and measuring doxorubicin concentration by the Enzyme-Linked Immunosorbent Assay (ELISA) method polystyrene microtiter plates (Nunc MaxiSorp F8 Immunomodules) optimized for protein binding and containing 96 wells per plate were used. […] Following the incubation for color development, 50 μL of stop solution (1.5% sodium fluoride in di H2O) was added to each well to stop the color development and after 10 seconds of shaking the absorbance was determined at 650 nm with a 96-well plate reader. The amount of antibody in a well was proportional to the absorbance measured and was expressed as the dilution (titer) resulting in an absorbance of 1.5. Titers were determined by graphing log antibody dilution of the antibody measured (x-axis) vs. absorbance 650 nm (y-axis) and extrapolating the titer at an absorbance of 1.5. The titer determined the concentration (dilution) of antibody used in the indirect competitive Microtiter plate assay described in Example 11. Doxorubicin concentrations were measured by an indirect competitive Enzyme-Linked Immunosorbent Assay (ELISA) method This method for measuring doxorubicin concentrations was performed with the microtiter plates that were sensitized with doxorubicin [1]-BSA described in Examples 9b, c, d. […]

[5] = tested on: antibody as produced in Examples 7 and 8 with immunogen of Examples 3a, 3b, 4a & b; assay: Competitive immunoassay cross-reactivity, antibodies of Examples 7 and 8 taken together; type: binding, mouse; conditions: antibodies of Examples 7 and 8, immunogens of Examples 3a
Method: The present invention relates to novel antibodies and monoclonal antibodies to doxorubicin. The antisera of the invention can be conveniently produced by immunizing host animals with the immunogens of this invention. Suitable host animals include rodents, such as, for example, mice, rats, rabbits, guinea pigs and the like, or higher mammals such as goats, sheep, horses and the like. […] Doxorubicin concentrations were measured by an indirect competitive Enzyme-Linked Immunosorbent Assay (ELISA) method This method for measuring doxorubicin concentrations was performed with the microtiter plates that were sensitized with doxorubicin [1]-BSA described in Examples 9b, c, d. […] The assay was performed by incubating 50 μL of the analytes to be measured with 50 μL of antibody (produced in Examples 7 and 8 with immunogens of Examples 3a, 3b, 4a and 4b) diluted to a titer determined in Example 10a. […] Following the incubation for color development, 50 μL of stop solution (1.5% sodium fluoride in di H2O) was added to each well to stop the color development and after 10 seconds of shaking the absorbance was determined at 650 nm with a 96-well plate reader. The amount of antibody in a well was proportional to the absorbance measured and inversely proportional to the amount of doxorubicin in the sample. […]

[6] = plate sensitized as in Example 9b (doxorubicin [5]-BSA 3:1)
[7] = plate sensitized as in Example 9c (doxorubicin [5]-BSA 1:1)
[8] = plate sensitized as in Example 9d (doxorubicin [5]-BSA 1:1 thiol capped)

SMILES | % cross-reactivity [1, 6] [%] | % cross-reactivity [1, 7] [%] | % cross-reactivity [1, 8] [%] | % cross-reactivity [2, 6] [%] | % cross-reactivity [2, 7] [%] | % cross-reactivity [2, 8] [%] | % cross-reactivity [3, 6] [%] | % cross-reactivity [3, 7] [%] | % cross-reactivity [4, 6] [%] | % cross-reactivity [4, 7] [%] | % cross-reactivity [4, 8] [%] | percent cross-reactivity relative to doxorubicin [5]
COc1cccc2c1C(=O)c1c(O)c3c(c(O)c1C2=O)C[C@@](O)(C(=O)CO)C[C@@H]3O[C@H]1C[C@H](N)[C@H](O)[C@H](C)O1.Cl [doxorubicin] | 100 | 100 | 100 | 100 | 100 | 100 | 100 | 100 | 100 | 100 | 100 | 
COc1cccc2c1C(=O)c1c(O)c3c(c(O)c1C2=O)C[C@@](O)(C(=O)CO)C[C@@H]3O [doxorubicin-aglycone, doxorubicin aglycone] | 1.5 | 3.9 | 3.0 | 5.7 | 10.0 | 8.8 | 10.6 | 12.9 | 8.6 |  |  | less than or equal to 10%
